# Measured values: PubChem BioAssay AID624396 (The Scripps Research Institute Molecular Screening Center, 2012)
# Several values for one entry are separate records, joined by “and”; a condition that tells them apart may be missing. Identical values can stand only once.
# Key:
# Assay in all cases: pro-apoptotic nuclear morphology in cancer cells – imaging, DAPI staining, cell line panel, probe, mechanism study for MCL1-BIM inhibitor project, late-stage follow-up (AID 624396)
# [1] = tested on: NCI-H929; conditions: cancer cell panel apoptosis
# [2] = tested on: DHL-10; conditions: cancer cell panel apoptosis, single IC50 determination, other campaign
# [3] = tested on: DHL-6; conditions: cancer cell panel apoptosis
# [4] = tested on: 1863 BCL-XL; conditions: cancer cell panel apoptosis
# [5] = tested on: 1780 MCl1; conditions: cancer cell panel apoptosis
structure (smiles),measurement,setting,value
CCN1CCN(C(c2ccc(C(F)(F)F)cc2)c2ccc3cccnc3c2O)CC1 (stereo not given),IC50,[1],3600 nM and 1600 nM
same,IC50,[2],> 25000 nM
same,IC50,[3],2200 nM and 3300 nM
same,IC50,[4],1200 nM and 1100 nM
same,IC50,[5],700 nM and 300 nM
